Source: patent US20140296154A1, “METHOD OF PREVENTING DEVELOPMENT OF PSORIATIC LESIONS” (YALE UNIVERSITY, priority 2011, published 2014)
Square brackets hold non-standard residues; d marks the D form. Ends that are not written are not given here.

Assays:
[1] = tested on: A20; experiment: Western blot of A20 in skin of WT and PSX mice with and without TPA; assay type: in vivo, mouse; settings: topical TPA; wild-type and old (24-week) PSX mice compared to young (4-week) PSX mice
[2] = Topical delivery of FITC-labeled NBD peptide into skin; assay type: in vivo
Source text: To assess the ability to deliver the NBD peptide of SEQ ID NO: 122 topically, the peptide was conjugated to the fluorophore FITC, and the labeled peptide prepared in two different formulations. The first formulation consisted of the labeled peptide dissolved in vaseline ointment, and the second formulation consisted of the labeled peptide dissolved in DMSO.

[3] = tested on: PSX mice (K14-VEGF transgenic psoriasis model); experiment: Ear thickness / psoriatic lesion development in PSX (homozygous K14-VEGF transgenic) mice; assay type: in vivo, mouse; settings: intraperitoneal 50 micrograms twice weekly; for mean ear thickness / psoriatic skin lesions: older PSX mice with fully developed psoriatic lesions, 8 weeks, vs untreated control
Source text: This K14-VEGF mouse was backcrossed to homozygosity for the transgene(s), generating a mouse model that develops psoriasiform lesions on the ears spontaneously and after trauma. These are referred to as PSX mice. […] FIGS. 3A-D illustrate the PSX transgenic mouse model used in screening psoriasis treatments in accordance with the present invention. […] FIGS. 3C and 3D show pathology of the mouse model.
The NF-κB inhibitor used for the treatments in this example was the fusion protein drqikiwfqnrrmkwkkTALDWSWLQTE (SEQ ID NO: 122), where lower case letters indicate D-amino acid residues and upper case letters indicate L-amino acid residues. This inhibitor includes a translocation domain of Antennapedia and an Nemo Binding Domain (NBD) peptide.
The peptide was formulated and administered as an intraperitoneal injection of 50 micrograms to either PSX mice after they had fully developed psoriatic skin lesions (FIG. 7) or prior to the development of psoriatic plaques when the ears were still uninvolved (FIG. 8). Assessment of the development of psoriatic lesions was measured by the thickness of ear tissue.

CCCCCCCCCCCCCC(=O)O[C@@H]1[C@@H](C)[C@@]2(O)[C@@H](C=C(CO)C[C@]3(O)C(=O)C(C)=C[C@@H]23)[C@@H]2C(C)(C)[C@]12OC(C)=O [TPA, 12-O-tetradecanoyl phorbol-13-acetate]
A20 protein induction [1]: robust induction

FITC-conjugated NBD peptide of SEQ ID NO: 122: NBD peptide of SEQ ID NO: 122 conjugated to the fluorophore FITC, in vaseline ointment or DMSO ([dD][dR][dQ][dI][dK][dI][dW][dF][dQ][dN][dR][dR][dM][dK][dW][dK][dK]TALDWSWLQTE; also: FITC conjugate, site not given here)
peptide localisation in skin after topical administration ([2]; peptide in DMSO): uptake is prevalent among the cells in both the epidermis and dermis
peptide localisation in skin after topical administration ([2]; peptide in vaseline ointment): limited to the stratum corneum

drqikiwfqnrrmkwkkTALDWSWLQTE ([dD][dR][dQ][dI][dK][dI][dW][dF][dQ][dN][dR][dR][dM][dK][dW][dK][dK]TALDWSWLQTE) [SEQ ID NO: 122]
mean ear thickness / psoriatic skin lesions ([3]; listed as NF-κB inhibitor): no change
mean ear thickness / psoriatic skin lesions ([3]; listed as peptide): no effect
thickening of the ear and development of phenotypic lesions of psoriasis ([3]; young PSX mice treated prior to development of psoriatic plaques, vs vehicle (DMSO)): prevented the thickening of the ear
